Source: patent publication US20080132536A1, “PYRAZOLO [3,4-B] PYRIDINE COMPOUNDS, AND THEIR USE AS PDE4 INHIBITORS” (Glaxo Group Limited, priority 2003, published 2008)

Biological target: T1, PDE4B (human recombinant) (Homo sapiens, UniProt Q07343)
T1 construct: made in house
Assay: PDE4B inhibition, radioactive SPA and/or IMAP fluorescence polarisation (FP) assay
Format: biochemical
Conditions: for IC50: one reading or average of several (ca. 2-6) readings, SPA and/or FP assay, range given for a group of Examples, read-out: PDE4B pIC50 (±about 0.5) (converted); for PDE4B inhibitory activity compared with the comparable Example of opposite stereochemistry at the CR4R5 (benzylic) carbon atom: comparators: Examples 6, 7, 29, 26, 64, 126, 124, 170, 177
From the text: Human recombinant PDE4B, in particular the 2B splice variant thereof (HSPDE4B2B), is disclosed in WO 94/20079 and also M. M. McLaughlin et al., “A low Km, rolipram-sensitive, cAMP-specific phosphodiesterase from human brain: cloning and expression of cDNA, biochemical characterisation of recombinant protein, and tissue distribution of mRNA”, J. Biol. Chem., 1993, 268, 6470-6476. For example, in Example 1 of WO 94/20079, human recombinant PDE4B is described as being expressed in the PDE-deficient yeast Saccharomyces cerevisiae strain GL62, e.g. after induction by addition of 150 uM CuSO4, and 100,000×g supernatant fractions of yeast cell lysates are described for use in the harvesting of PDE4B enzyme.
The ability of compounds to inhibit catalytic activity at PDE4B or 4D (human recombinant), PDE3 (from bovine aorta), PDE5 (human recombinant) or PDE6 (from bovine retina) can optionally be determined by Scintillation Proximity Assay (SPA) in 96-well format.
Test compounds (as a solution in DMSO, preferably about 2 microlitre (ul) volume of DMSO solution) are preincubated at ambient temperature (room temperature, e.g. 19-23° C.) in Wallac Isoplates (code 1450-514) with PDE enzyme in 50 mM Tris-HCl buffer pH 7.5, 8.3 mM MgCl2, 1.7 mM EGTA, 0.05% (w/v) bovine serum albumin for 10-30 minutes (usually 30 minutes). The enzyme concentration is adjusted so that no more than 20% hydrolysis of the substrate defined below occurs in control wells without compound, during the incubation. For the PDE3, PDE4B and PDE4D assays, [5′,8-3H]Adenosine 3′,5′-cyclic phosphate (Amersham Pharmacia Biotech, code TRK.559; or Amersham Biosciences UK Ltd, Pollards Wood, Chalfont St Giles, Buckinghamshire HP8 4SP, UK) is added to give 0.05 uCi per well and about 10 nM final concentration. For the PDE5 and PDE6 assays, [8-^3H]Guanosine 3′,5′-cyclic phosphate (Amersham Pharmacia Biotech, code TRK.392) is added to give 0.05 uCi per well and about 36 nM final concentration. Plates containing assay mixture, preferably approx. 100 ul volume of assay mixture, are mixed on an orbital shaker for 5 minutes and incubated at ambient temperature for 1 hour. Phosphodiesterase SPA beads (Amersham Pharmacia Biotech, code RPNQ 0150) are added (about 1 mg per well) to terminate the assay. Plates are sealed and shaken and allowed to stand at ambient temperature for 35 minutes to 1 hour (preferably 35 minutes) to allow the beads to settle. Bound radioactive product is measured using a WALLAC TRILUX 1450 Microbeta scintillation counter. For inhibition curves, 10 concentrations (1.5 nM-30 uM) of each compound are assayed. Curves are analysed using ActivityBase and XLfit (ID Business Solutions Limited, 2 Ocean Court, Surrey Research Park, Guildford, Surrey GU2 7QB, United Kingdom) Results are expressed as pIC50 values.
The ability of compounds to inhibit catalytic activity at PDE4B (human recombinant) or PDE4D (human recombinant) can optionally be determined by IMAP Fluorescence Polarisation (FP) assay (IMAP Explorer kit, available from Molecular Devices Corporation, Sunnydale, Calif., USA; Molecular Devices code: R8062) in 384-well format.
The IMAP FP assay is able to measure PDE activity in an homogenous, non-radioactive assay format. The FP assay uses the ability of immobilised trivalent metal cations, coated onto nanoparticles (tiny beads), to bind the phosphate group of Fl-AMP that is produced on the hydrolysis of fluorescein-labelled (Fl) cyclic adenosine mono-phosphate (Fl-cAMP) to the non-cyclic Fl-AMP form. […] Binding of Fl-AMP product to the beads (coated with the immobilised trivalent cations) slows the rotation of the bound Fl-AMP and leads to an increase in the fluorescence polarisation ratio of parallel to perpendicular light. Inhibition of the PDE reduces/inhibits this signal increase. […]

T1 sequence (Q07343 1-564 isoform Q07343-2): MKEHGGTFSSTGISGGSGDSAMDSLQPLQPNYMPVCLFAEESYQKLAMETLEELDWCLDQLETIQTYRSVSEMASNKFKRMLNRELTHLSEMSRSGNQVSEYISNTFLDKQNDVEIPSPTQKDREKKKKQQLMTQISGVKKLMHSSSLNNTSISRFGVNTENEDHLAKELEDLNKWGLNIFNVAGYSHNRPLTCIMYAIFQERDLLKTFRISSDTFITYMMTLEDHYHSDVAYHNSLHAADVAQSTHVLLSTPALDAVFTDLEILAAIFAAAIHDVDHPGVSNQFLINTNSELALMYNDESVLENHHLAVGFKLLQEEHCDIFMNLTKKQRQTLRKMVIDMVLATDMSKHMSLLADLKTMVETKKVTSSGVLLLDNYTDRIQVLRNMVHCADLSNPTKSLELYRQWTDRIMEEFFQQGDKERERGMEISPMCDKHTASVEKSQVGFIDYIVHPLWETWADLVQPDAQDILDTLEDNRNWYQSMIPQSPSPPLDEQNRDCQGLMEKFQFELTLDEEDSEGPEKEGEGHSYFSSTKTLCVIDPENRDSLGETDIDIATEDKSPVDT

SMILES	IC50	PDE4B inhibitory activity compared with the comparable Example of opposite stereochemistry at the CR4R5 (benzylic) carbon atom
CCn1ncc2c(NC3CCCCC3)c(C(=O)N[C@H](CO)c3ccccc3)cnc21 [Example 127, 4-(cyclohexylamino)-1-ethyl-N-[(1S)-2-hydroxy-1-phenylethyl]-1H-pyrazolo[3,4-b]pyridine-5-carboxamide]	–	greater PDE4B inhibitory activity
CCn1ncc2c(NC3CCOCC3)c(C(=O)NC(C)c3ccc(Br)cc3)cnc21 (centres unmarked) [Example 50, N-[1-(4-bromophenyl)ethyl]-1-ethyl-4-(tetrahydro-2H-pyran-4-ylamino)-1H-pyrazolo[3,4-b]pyridine-5-carboxamide]	0.794 to 5.01 nM	–
CCn1ncc2c(N[C@H]3CC[C@@H](C(N)=O)CC3)c(C(=O)N[C@H](C)c3ccc(C)cc3)cnc21 [Example 353, 4-{[cis-4-(aminocarbonyl)cyclohexyl]amino}-1-ethyl-N-[(1R)-1-(4-methylphenyl)ethyl]-1H-pyrazolo[3,4-b]pyridine-5-carboxamide]	0.501 to 3.16 nM	–
CCC(NC(=O)c1cnc2c(cnn2CC)c1NC1CCC(C(N)=O)CC1)c1ccc(F)cc1 (mixture of isomers) [Example 350, 4-{[4-(aminocarbonyl)cyclohexyl]amino}-1-ethyl-N-[1-(4-fluorophenyl)propyl]-1H-pyrazolo[3,4-b]pyridine-5-carboxamide]	0.501 to 3.16 nM	–
CCn1ncc2c(NC3CCOCC3)c(C(=O)NC(C)c3ccc(C)cc3)cnc21 (centres unmarked) [Example 48, 1-ethyl-N-[1-(4-methylphenyl)ethyl]-4-(tetrahydro-2H-pyran-4-ylamino)-1H-pyrazolo[3,4-b]pyridine-5-carboxamide]	0.1 to 2 nM	–
CCn1ncc2c(NC3CCOCC3)c(C(=O)N[C@H](C)c3ccc(Br)cc3)cnc21 [Example 75, N-[(1R)-1-(4-bromophenyl)ethyl]-1-ethyl-4-(tetrahydro-2H-pyran-4-ylamino)-1H-pyrazolo[3,4-b]pyridine-5-carboxamide]	0.794 to 5.01 nM	–
CCn1ncc2c(NC3CCOCC3)c(C(=O)N[C@H](C)c3ccccc3)cnc21 [Example 8, 1-ethyl-N-[(1R)-1-phenylethyl]-4-(tetrahydro-2H-pyran-4-ylamino)-1H-pyrazolo[3,4-b]pyridine-5-carboxamide]	0.794 to 5.01 nM	greater PDE4B inhibitory activity
CCC(NC(=O)c1cnc2c(cnn2CC)c1NC1CCC(C(N)=O)CC1)c1ccc(Cl)cc1 (mixture of isomers) [Example 346, 4-{[4-(aminocarbonyl)cyclohexyl]amino}-N-[1-(4-chlorophenyl)propyl]-1-ethyl-1H-pyrazolo[3,4-b]pyridine-5-carboxamide]	0.501 to 3.16 nM	–
CCn1ncc2c(NC3CCOCC3)c(C(=O)N[C@@H](COC)c3ccccc3)cnc21 [Example 29, 1-ethyl-N-[(1R)-2-(methyloxy)-1-phenylethyl]-4-(tetrahydro-2H-pyran-4-ylamino)-1H-pyrazolo[3,4-b]pyridine-5-carboxamide]	31.6 to 70.8 nM	–
CC[C@H](NC(=O)c1cnc2c(cnn2CC)c1NC1CCOCC1)c1ccccc1 [Example 6, 1-ethyl-N-[(1S)-1-phenylpropyl]-4-(tetrahydro-2H-pyran-4-ylamino)-1H-pyrazolo[3,4-b]pyridine-5-carboxamide]	31.6 to 70.8 nM	–
CCn1ncc2c(N[C@H]3CC[C@H](C(N)=O)CC3)c(C(=O)N[C@H](C)c3ccccc3)cnc21 [Example 358, 4-{[trans-4-(aminocarbonyl)cyclohexyl]amino}-1-ethyl-N-[(1R)-1-phenylethyl]-1H-pyrazolo[3,4-b]pyridine-5-carboxamide]	39.8 to 158 nM	–
CCC(NC(=O)c1cnc2c(cnn2CC)c1NC1CCOCC1)c1ccc(C)cc1C (centres unmarked) [Example 98, N-[1-(2,4-dimethylphenyl)propyl]-1-ethyl-4-(tetrahydro-2H-pyran-4-ylamino)-1H-pyrazolo[3,4-b]pyridine-5-carboxamide]	0.1 to 2 nM	–
CCn1ncc2c(NC3CCOCC3)c(C(=O)N[C@@H](C)c3ccccc3)cnc21 [Example 7, 1-ethyl-N-[(1S)-1-phenylethyl]-4-(tetrahydro-2H-pyran-4-ylamino)-1H-pyrazolo[3,4-b]pyridine-5-carboxamide]	31.6 to 70.8 nM	–

Results, then the compound that gave them:

IC50	PDE4B inhibitory activity compared with the comparable Example of opposite stereochemistry at the CR4R5 (benzylic) carbon atom	SMILES
31.6 to 70.8 nM	–	CCn1ncc2c(NC3CCOCC3)c(C(=O)N[C@@H](CO)c3ccccc3)cnc21 [Example 26, 1-ethyl-N-[(1R)-2-hydroxy-1-phenylethyl]-4-(tetrahydro-2H-pyran-4-ylamino)-1H-pyrazolo[3,4-b]pyridine-5-carboxamide]
39.8 to 158 nM	–	CCn1ncc2c(N[C@H]3CC[C@H](C(N)=O)CC3)c(C(=O)N[C@H](C)c3ccc(C)cc3)cnc21 [Example 357, 4-{[trans-4-(aminocarbonyl)cyclohexyl]amino}-1-ethyl-N-[(1R)-1-(4-methylphenyl)ethyl]-1H-pyrazolo[3,4-b]pyridine-5-carboxamide]
39.8 to 158 nM	–	CCn1ncc2c(N[C@H]3CC[C@H](C(N)=O)CC3)c(C(=O)N[C@H](C)c3ccc(Br)cc3)cnc21 [Example 359, 4-{[trans-4-(aminocarbonyl)cyclohexyl]amino}-N-[(1R)-1-(4-bromophenyl)ethyl]-1-ethyl-1H-pyrazolo[3,4-b]pyridine-5-carboxamide]
0.1 to 2 nM	–	CCn1ncc2c(NC3CCC(=O)CC3)c(C(=O)N[C@H](C)c3ccc(C)cc3)cnc21 [Example 191, 1-ethyl-N-[(1R)-1-(4-methylphenyl)ethyl]-4-[(4-oxocyclohexyl)amino]-1H-pyrazolo[3,4-b]pyridine-5-carboxamide]
0.501 to 3.16 nM	–	CC[C@@H](NC(=O)c1cnc2c(cnn2CC)c1NC1CCC(C(N)=O)CC1)c1ccccc1 (mixture of isomers) [Example 347, 4-{[4-(aminocarbonyl)cyclohexyl]amino}-1-ethyl-N-[(1R)-1-phenylpropyl]-1H-pyrazolo[3,4-b]pyridine-5-carboxamide]
0.501 to 3.16 nM	–	CCn1ncc2c(NC3CCC(C(N)=O)CC3)c(C(=O)NC(C)c3ccc(Cl)cc3)cnc21 (mixture of isomers) [Example 349, 4-{[4-(aminocarbonyl)cyclohexyl]amino}-N-[1-(4-chlorophenyl)ethyl]-1-ethyl-1H-pyrazolo[3,4-b]pyridine-5-carboxamide]
–	greater PDE4B inhibitory activity	CC[C@@H](NC(=O)c1cnc2c(cnn2CC)c1NC1CCN(C(C)=O)CC1)c1ccccc1 [Example 174, 4-[(1-acetyl-4-piperidinyl)amino]-1-ethyl-N-[(1R)-1-phenylpropyl]-1H-pyrazolo[3,4-b]pyridine-5-carboxamide]
12.6 to 25.1 nM	–	CCn1ncc2c(NC3CCOCC3)c(C(=O)N[C@H](C)c3cccc4ccccc34)cnc21 [Example 37, 1-ethyl-N-[(1R)-1-(1-naphthalenyl)ethyl]-4-(tetrahydro-2H-pyran-4-ylamino)-1H-pyrazolo[3,4-b]pyridine-5-carboxamide]
0.501 to 3.16 nM	–	CCn1ncc2c(NC3CCC(C(N)=O)CC3)c(C(=O)NC(C)c3ccc(OC(F)F)cc3)cnc21 (mixture of isomers) [Example 348, 4-{[4-(aminocarbonyl)cyclohexyl]amino}-N-(1-{4-[(difluoromethyl)oxy]phenyl}ethyl)-1-ethyl-1H-pyrazolo[3,4-b]pyridine-5-carboxamide]
